Data set [1] has as its system generalized trembling caused by dl-5-hydroxytryptophane. The data set is described as follows: Test B: potentialization in mice of generalized trembling caused by dl-5-hydroxytryptophane. The data set is classed as in vivo. To be noted: Mus musculus, read-out: Test B ED 50. The source says: Test B: Potentialization in mice of generalized trembling caused by an intraperitoneal injection of dl-5-hydroxytryptophane, according to the protocol described by GOURET C. and RAYNAUD G. in J. Pharmacol. (Paris), (1974), 5, 231.

The test system of the next data set is ptosis (reserpine). Put plainly: Test A: antagonism with respect to ptosis observed one hour after intravenous injection of reserpine in mice. The data set is classed as in vivo. The following applies: Mus musculus, 1 h, read-out: Test A ED 50.
A short description of data set [2]: Acute toxicity, LD 50 in mice, oral. To be noted: mouse, in vivo.
The mark [3] stands for this setting: mice, oral, dl-5-hydroxytryptophane i.p.
Where [4] appears, read: mice, oral, ptosis one hour after reserpine 2 mg/kg i.v.

This is an account of results in US4346102A, “3H-Dihydrofuranone-2 derivatives and pharmaceutical use thereof” (Delalande S.A., priority 1979, dated 1982).

Where two headings read alike, the source gives them in different places.

Method for ptosis (reserpine): Test A: Antagonism with respect to ptosis observed one hour after an intravenous injection (2 mg/kg) of reserpine given to mice according to the protocol described by GOURET C. and THOMAS J. in J. Pharmacol. (Paris, (1973), 4, 401.

Usually LD50 stands for the dose at which mortality reaches 50%. The low end stands for greater toxicity, the high end for lower toxicity. Take `COC[C@H]1C[C@@H](c2ccc(OCCCCCl)cc2)C(=O)O1` (relative stereo) [3 B]: the figures for the ED50 (in data set [1] (setting [3]); in the data set on ptosis (reserpine) (setting [4])) were 1.7 mg/kg and 3.6 mg/kg, respectively. Besides, the 50% lethal dose (LD50) in data set [2] came to 2000 mg/kg.
Turning to `COC[C@H]1C[C@@H](c2ccc(OCc3ccccc3)cc2)C(=O)O1` (relative stereo) [5 B], the ED50 worked out at 15.5 mg/kg in data set [1] (setting [3]) and 11.5 mg/kg in the data set with ptosis (reserpine) (setting [4]).
For `O=C1O[C@@H](CO)C[C@@H]1c1ccc(OCc2cccc([N+](=O)[O-])c2)cc1` (relative stereo) [6 A], the results for the ED50 (in data set [1] (setting [3]); in the data set on ptosis (reserpine) (setting [4])) were 5.8 mg/kg and 4.4 mg/kg, respectively. Moreover, the median lethal dose (LD50) in data set [2] is > 2000 mg/kg.
On to `O=C1O[C@@H](CO)C[C@H]1c1ccc(OCc2cccc([N+](=O)[O-])c2)cc1` (relative stereo) [6 B], for which the ED50 amounted to 2 mg/kg in data set [1] (setting [3]) and 1.6 mg/kg with ptosis (reserpine) (setting [4]). For the same molecule, the LD50 in data set [2] is > 2000 mg/kg.
With `CC(=O)OC[C@H]1C[C@H](c2ccc(OCc3cccc([N+](=O)[O-])c3)cc2)C(=O)O1` (relative stereo) [7 A], the ED50 in data set [1] (setting [3]) is 10 mg/kg; in the data set with ptosis (reserpine) (setting [4]), 12.5 mg/kg.
`CC(=O)OC[C@H]1C[C@@H](c2ccc(OCc3cccc([N+](=O)[O-])c3)cc2)C(=O)O1` (relative stereo) [7 B]: the ED50 in data set [1] (setting [3]) worked out at 3.2 mg/kg; in the data set with ptosis (reserpine) (setting [4]), 2.5 mg/kg. Moreover, the LD50 in data set [2] was > 2000 mg/kg.
Regarding `COC[C@H]1C[C@H](c2ccc(OCc3cccc([N+](=O)[O-])c3)cc2)C(=O)O1` (relative stereo) [8 A], the ED50 in data set [1] (setting [3]) was determined as 4.4 mg/kg; in the data set on ptosis (reserpine) (setting [4]), 6.2 mg/kg. Also, the LD50 in data set [2] was > 2000 mg/kg.
For `COC[C@H]1C[C@@H](c2ccc(OCc3cccc([N+](=O)[O-])c3)cc2)C(=O)O1` (relative stereo) [8 B], the ED50 in data set [1] (setting [3]) turned out to be 0.29 mg/kg; in the data set on ptosis (reserpine) (setting [4]), 0.58 mg/kg. In addition, the LD50 in data set [2] was determined as 2000 mg/kg.
For `COC[C@H]1C[C@H](c2ccc(OCc3cccc(Cl)c3)cc2)C(=O)O1` (relative stereo) [10 A], the ED50 was 10 mg/kg in data set [1] (setting [3]) and 24 mg/kg with ptosis (reserpine) (setting [4]). The LD50 in data set [2] was > 2000 mg/kg.
Take `COC[C@H]1C[C@@H](c2ccc(OCc3cccc(Cl)c3)cc2)C(=O)O1` (relative stereo) [10 B]: the values for the ED50 (in data set [1] (setting [3]); with ptosis (reserpine) (setting [4])) were 10 mg/kg and 15 mg/kg, respectively. Also, in data set [2], the 50% lethal dose (LD50) was > 2000 mg/kg.
On to `COC[C@@H]1C[C@@H](c2ccc(OCc3cccc(C#N)c3)cc2)C(=O)O1` (relative stereo) [13 A], for which the ED50 in data set [1] (setting [3]) was 20 mg/kg; in the data set with ptosis (reserpine) (setting [4]), 12 mg/kg. In data set [2], the LD50 was > 2000 mg/kg.
Turning to `COC[C@@H]1C[C@H](c2ccc(OCc3cccc(C#N)c3)cc2)C(=O)O1` (relative stereo) [13 B], the ED50 was 1.7 mg/kg in data set [1] (setting [3]) and 0.9 mg/kg in the data set with ptosis (reserpine) (setting [4]). In addition, the LD50 in data set [2] was > 2000 mg/kg.
For the molecule `COC[C@H]1C[C@H](c2ccc(OCc3cc(C#N)cc([N+](=O)[O-])c3)cc2)C(=O)O1` (relative stereo) [17 A], the ED50 in data set [1] (setting [3]) was determined as 6.4 mg/kg; in the data set on ptosis (reserpine) (setting [4]), 5.5 mg/kg. Moreover, in data set [2], the LD50 is > 2000 mg/kg.
The matching figures for `COC[C@H]1C[C@@H](c2ccc(OCc3cc(C#N)cc([N+](=O)[O-])c3)cc2)C(=O)O1` (relative stereo) [17 B]: 0.55 mg/kg, 0.32 mg/kg and 1700 mg/kg.
Take `COC[C@H]1C[C@H](c2ccc(OCc3ccc(F)c(Cl)c3)cc2)C(=O)O1` (relative stereo) [18 A]: the ED50 in data set [1] (setting [3]) worked out at 16 mg/kg; in the data set on ptosis (reserpine) (setting [4]), 23 mg/kg.
As for `COC[C@H]1C[C@@H](c2ccc(OCc3ccc(F)c(Cl)c3)cc2)C(=O)O1` (relative stereo) [18 B], the ED50 was 3.1 mg/kg in data set [1] (setting [3]) and 5.4 mg/kg in the data set on ptosis (reserpine) (setting [4]). In addition, the LD50 in data set [2] is > 2000 mg/kg.
As to `N[C@@H]1C[C@H]1c1ccccc1` (relative stereo) [TRANYLCYPROMINE, reference compound], the values for the ED50 (in data set [1] (po); in the data set on ptosis (reserpine) (po)) were 1.37 mg/kg and 1.55 mg/kg, respectively. In data set [2], this molecule yielded an LD50 of 58 mg/kg.
`CC(C)CCOc1ccc(C2CC(CO)OC2=O)cc1` (stereo not drawn) [Compound 1]: the ED50 in data set [1] (setting [3]) was determined as 14 mg/kg; in the data set on ptosis (reserpine) (setting [4]), 19 mg/kg.
Consider `O=C1OC(CO)CC1c1ccc(OCC2CCCCC2)cc1` (stereo not drawn) [Compound 2], for which the ED50 in data set [1] (setting [3]) was determined as 9 mg/kg; with ptosis (reserpine) (setting [4]), 5.5 mg/kg. Moreover, in data set [2], the LD50 was > 2000 mg/kg.
Take `COCC1CC(c2ccc(OCCCCC#N)cc2)C(=O)O1` (stereo not drawn) [Compound 4]: the ED50 is 0.19 mg/kg in data set [1] (setting [3]) and 0.3 mg/kg in the data set on ptosis (reserpine) (setting [4]). Moreover, the LD50 in data set [2] was > 2000 mg/kg.
Consider `O=C1OC(CO)CC1c1ccc(OCc2cccc([N+](=O)[O-])c2)cc1` (stereo not drawn) [Compound 6, 3-para(metanitrobenzyloxy)phenyl-5-hydroxymethyl-3H-dihydrofuranone-2], for which the figures for the ED50 (in data set [1] (setting [3]); with ptosis (reserpine) (setting [4])) were 1.5 mg/kg and 1.4 mg/kg, respectively.
Regarding `COCC1C=C(c2ccc(OCc3cccc([N+](=O)[O-])c3)cc2)C(=O)O1` (stereo not drawn) [Compound 9], the ED50 in the data set on ptosis (reserpine) (setting [4]) is 0.22 mg/kg. The LD50 in data set [2] is > 2000 mg/kg.
In the case of `COCC1C=C(c2ccc(OCc3cccc(Cl)c3)cc2)C(=O)O1` (stereo not drawn) [Compound 11], the ED50 in data set [1] (setting [3]) was found to be 1.6 mg/kg; with ptosis (reserpine) (setting [4]), 2.3 mg/kg. For the same molecule, in data set [2], the LD50 was > 2000 mg/kg.
As to `N#Cc1cccc(COc2ccc(C3CC(CO)OC3=O)cc2)c1` (stereo not drawn) [Compound 12], the values for the ED50 (in data set [1] (setting [3]); in the data set with ptosis (reserpine) (setting [4])) were 16 mg/kg and 10 mg/kg, respectively.
With `COCC1C=C(c2ccc(OCc3cccc(C#N)c3)cc2)C(=O)O1` (stereo not drawn) [Compound 14, 3-para(metacyanobenzyloxy)-phenyl-5-methoxymethyl-5H-furanone-2], the ED50 was determined as 0.55 mg/kg in data set [1] (setting [3]) and 0.68 mg/kg in the data set on ptosis (reserpine) (setting [4]).
For the molecule `COCC1CC(c2ccc(OCc3cccnc3)cc2)C(=O)O1` (stereo not drawn) [Compound 15], the figures for the ED50 (in data set [1] (setting [3]); in the data set on ptosis (reserpine) (setting [4])) were 12 mg/kg and 5.8 mg/kg, respectively.
In the case of `N#Cc1cc(COc2ccc(C3CC(CO)OC3=O)cc2)cc([N+](=O)[O-])c1` (stereo not drawn) [Compound 16], the ED50 in data set [1] (setting [3]) was found to be 3.5 mg/kg; in the data set on ptosis (reserpine) (setting [4]), 1.2 mg/kg. Besides, the LD50 in data set [2] is > 2000 mg/kg.
Take `COCC1C=C(c2ccc(OCc3ccc(F)c(Cl)c3)cc2)C(=O)O1` (stereo not drawn) [Compound 19]: the ED50 in data set [1] (setting [3]) came to 2.4 mg/kg; in the data set on ptosis (reserpine) (setting [4]) it was 2.1 mg/kg. In data set [2], the median lethal dose (LD50) was > 2000 mg/kg.
With `COCC1C=C(c2ccc(OCc3ccccc3)cc2)C(=O)O1` (stereo not drawn) [Compound 20], the ED50 in data set [1] (setting [3]) was determined as 4 mg/kg; in the data set with ptosis (reserpine) (setting [4]), 4.4 mg/kg. Besides, in data set [2], the median lethal dose (LD50) is > 2000 mg/kg.
For the molecule `O=C(CCNNC(=O)c1ccncc1)NCc1ccccc1` [NIALAMIDE, reference compound], the ED50 amounted to 5.2 mg/kg in data set [1] (po) and 4.5 mg/kg in the data set on ptosis (reserpine) (po). In addition, in data set [2], the LD50 was determined as 1100 mg/kg.
`C#CCN(C)Cc1ccccc1` [PARGYLINE, reference compound]: the figures for the ED50 (in data set [1] (setting [3]); in the data set on ptosis (reserpine) (setting [4])) were 48 mg/kg and 34 mg/kg, respectively. This molecule also displayed an LD50 in data set [2] of 480 mg/kg.
With `C#CCN(C)C(C)Cc1ccccc1` (stereo not drawn) [reference compound], the figures for the ED50 (in data set [1] (po); with ptosis (reserpine) (po)) were 3 mg/kg and 9 mg/kg, respectively. Also, the LD50 in data set [2] worked out at 520 mg/kg.
